Experimental data taken from patent US8912181B2 (Taiho Pharmaceutical Co., Ltd., priority 2011, dated 2014).

Each compound was assayed on SK-BR-3 cells (assay: Determination of cell growth inhibition (crystal violet staining method)). Conditions: Homo sapiens; breast cancer cells SK-BR-3, 72 hours culture with test substance.
Type: cell-based
Experimental: Cell growth was assayed by a crystal violet staining method. SK-BR-3 cells (HTB-30) purchased from American Type Culture Collection were inoculated at a concentration of 5,000 cells/well to a 96-well plate (#353075, BD Biosciences). After culture at 37° C. for 24 hours in a 5% CO2 incubator, each test substance was added thereto, and the cells were further cultured for 72 hours. A 25% glutaraldehyde solution (#17025-25, Nacalai Tesque, Inc.) was added thereto at a concentration of 20 μL/well per 200 μL of the medium, and the plate was incubated at room temperature for 20 minutes to fix the cells. The plate was washed with water and dried. Then, a solution containing 0.05% crystal violet (#038-17792, Wako Pure Chemical Industries, Ltd.) and 20% methanol was added thereto at a concentration of 100 μL/well, and the plate was incubated at room temperature for 20 minutes to stain the cells. The plate was washed with water and dried. A mixed solution of 0.05 M NaH2PO4 and ethanol (mixed in equal amounts) was added thereto at a concentration of 100 μL/well. Absorbance was measured at 540 nm using a microplate reader (MTP-450, Corona Electric Co., Ltd.) and used as an index for the number of cells per well. Percent inhibition (%) of cell growth by each compound of the present invention was determined according to the formula shown below with the absorbance of no drug addition group as a control. […] Percent inhibition (%)=(C−T)/C×100, wherein T: Absorbance of well with test substance addition C: Absorbance of well without test substance addition.

Compound | IC50
NC(=O)c1ccc(-c2nccc3c(-c4cncc(N)c4)cccc23)cc1NC1CCC(O)CC1 (stereo not drawn) [Example 2, 4-(5-(5-Aminopyridin-3-yl)isoquinolin-1-yl)-2-(4-hydroxycyclohexylamino)benzamide] | 150 nM
NCC(=O)OC1CCC(Nc2cc(-c3nccc4c(-c5cnc6ccccc6c5)cccc34)ccc2C(N)=O)CC1 (stereo not drawn) [Example 33, 4-(2-Carbamoyl-5-(5-(quinolin-3-yl)isoquinolin-1-yl)phenylamino)cyclohexyl-2-aminoacetate] | 80 nM
CC(C)Cn1cc(-c2cn(-c3cccc4c(-c5ccc(C(N)=O)c(NC6CCC(O)CC6)c5)nccc34)cn2)cn1 (stereo not drawn) [Example 52, 2-(4-Hydroxycyclohexylamino)-4-(5-(4-(1-isobutyl-1H-pyrazol-4-yl)-1H-imidazol-1-yl)isoquinolin-1-yl)benzamide] | 110 nM
NC(=O)c1ccc(-c2nccc3c(-n4cnc(Br)c4)cccc23)cc1NC1CCC(O)CC1 (stereo not drawn) [Example 54, 4-(5-(4-Bromo-1H-imidazol-1-yl)isoquinolin-1-yl)-2-(4-hydroxycyclohexylamino)benzamide] | 480 nM
CC(C)(C)Nc1cc(-c2cc(C(F)(F)F)nc3c(-n4cnc(-c5ccccc5)c4)cccc23)ccc1C(N)=O [Example 107, 2-(Tert-butylamino)-4-(8-(4-phenyl-1H-imidazol-1-yl)-2-(trifluoromethyl)quinolin-4-yl)benzamide] | 240 nM

The remaining compounds from weak to strong by IC50, led by results:

IC50 | Compound
120 nM | CCNc1cc(-c2nccc3c(-n4cnc(-c5cnn(C)c5)c4)cccc23)ccc1C(N)=O [Example 1, 2-(Ethylamino)-4-(5-(4-(1-methyl-1H-pyrazol-4-yl)-1H-imidazol-1-yl)isoquinolin-1-yl)benzamide]
30 nM | Cn1cc(-c2cn(-c3cccc4c(-c5ccc(C(N)=O)c(NC6CCCCCC6)c5)nccc34)cn2)cn1 [Example 63, 2-(Cycloheptylamino)-4-(5-(4-(1-methyl-1H-pyrazol-4-yl)-1H-imidazol-1-yl)isoquinolin-1-yl)benzamide]
10 nM | Cn1cc(-c2cn(-c3cccc4c(-c5ccc(C(N)=O)c(NCC6CC6)c5)cc(C(F)(F)F)nc34)cn2)cn1 [Example 65, 2-(Cyclopropylmethylamino)-4-(8-(4-(1-methyl-1H-pyrazol-4-yl)-1H-imidazol-1-yl)-2-(trifluoromethyl)quinolin-4-yl)benzamide]
10 nM | CCNc1cc(-c2cc(C(F)(F)F)nc3c(-n4cnc(-c5cnn(C(F)F)c5)c4)cccc23)ccc1C(N)=O [Example 91, 4-(8-(4-(1-Difluoromethyl-1H-pyrazol-4-yl)-1H-imidazol-1-yl)-2-(trifluoromethyl)quinolin-4-yl)-2-(ethylamino)benzamide]
